Literature values, collected in publication PMC10432605 (Blood Advances, 2023).
Where two headings read alike, the source gives them in different places.

What was measured:
patients with r/r MCL = conditions: cited from earlier work
patients = conditions: cited from earlier work
[1] = median follow-up of 26.7 months
[2] = PET assessment, median follow-up 26 months
[3] = ref 10 (ibrutinib), 14 (acalabrutinib), 15 (zanubrutinib)

| Compound | median TTR (patients with r/r MCL) | ORR in patients with bulky tumors (patients with r/r MCL; [1]) | ORR in patients with ≥2 prior treatments (patients with r/r MCL; [1]) | ORR (patients with r/r MCL; pivotal study 1104, r/r MCL, median 15.3-month follow-up, CT-based) | median DOR (patients with r/r MCL; pivotal study 1104) | median PFS (patients with r/r MCL; pivotal study 1104) | CR (patients with r/r MCL; pivotal study 1104, median 15.3-month follow-up, CT-based) | grade 3 or greater atrial fibrillation and atrial flutter (patients) | grade 3 or higher hypertension events (patients) | CR (patients with r/r MCL; [2]) | ORR (patients with r/r MCL; [2]) | median DOR (patients with r/r MCL; acalabrutinib trial) | median PFS (patients with r/r MCL; acalabrutinib trial) | major hemorrhage (patients) | incidence of diarrhea (patients; [3]) | incidence of second malignancy (patients; [3]) |
| --- | --- | --- | --- | --- | --- | --- | --- | --- | --- | --- | --- | --- | --- | --- | --- | --- |
| C=CC(=O)N1CCC[C@@H](n2nc(-c3ccc(Oc4ccccc4)cc3)c3c(N)ncnc32)C1 [ibrutinib] | 1.9 months | 67% | 63% | 65.8% | 17.5 months | 13.9 months | 17.1% | 4% | 8% |  |  |  |  |  |  |  |
| CC#CC(=O)N1CCC[C@H]1c1nc(-c2ccc(C(=O)Nc3ccccn3)cc2)c2c(N)nccn12 [acalabrutinib] |  |  |  |  |  |  |  |  |  | 43% | 81% | 26 months | 20 months | 3.0% | 31% | 12% |
